The structures appear in SMILES notation.

Experiment [1] has as its system Protein X. In words: IC50 result for Protein X (independent biochemical assay).
Experiment [2] concerns Protein X. The experiment in a line: Biacore binding to Protein X. A general note: In SPR one partner is held on a chip, and binding of the other changes the refractive index at the surface.
The subject of experiment [3] is Protein X. The experiment in a line: SHG (Biodesy) titration of ligands on Protein X bound to a supported lipid bilayer. Format: binding. The following applies: Protein X on SLB; endpoint mode after 3 minutes of exposure; average of different days. As to the method: PyMPO-SE is coupled to His-tagged Protein X using the protocol described in the above Examples. Unreacted dye is purified by gel filtration. The resulting dye:protein ratio is determined spectrophotometrically. The supported bilayer membrane with Ni-NTA lipid is prepared as described in the Examples above. Recombinant His-tagged Protein X is incubated with the lipid bilayer at 5 μM for 20 minutes to produce a baseline signal following wash-out of unbound Protein X. A single ligand (denoted 3, 4 or 5) is exposed to Protein X on the surface and changes to the baseline SHG signal are measured in real time. A titration of the shift in SHG signal for each of the ligands as a function of ligand concentration is performed in endpoint mode, comparing the SHG signal after 3 minutes of exposure to the ligand at a given concentration to the baseline signal before exposure to the ligand.

Experiment [4] has as its system Raf/Mek/Erk signaling pathway. The following applies: previously shown, Grant et al., 2011; cited from earlier work.
For experiment [5], the target named is T1, G12V K-Ras (Homo sapiens, UniProt P01116, G12V).
T1 construct: made in house
In words: SHG detection of structural change of constitutively active G12V K-Ras. Format: binding. The settings on record: 10 μM; PyMPO-maleimide at Cys 118; FIG. 6B. As to the method: PyMPO-SE is coupled to a G12V constitutively active mutant K-Ras (Abrams et al., Semin Oncol. 1996 February; 23(1):118-34) using one of the two protocols described in Example 3 above. Recombinant His-tagged (N-terminus) Ras proteins are prepared according to standard protocols (Hall et al., 2002, Proc. Nat. Acad. Sci., U.S.A., 99(19):12138-42). The Ras proteins prepared according to this protocol is bound to an SHG-active GTP analog (ATTO-390-GTP) or an SHG label is coupled to Cys 118 with PyMPO-maleimide, a cysteine-reactive dye in 0.1 M Tris pH 8.0, 20 mM NaCl, 0.5 mM TCEP, 5% glycerol and a 12:1 dye:protein ratio for one hour at room temperature. Unreacted dye is purified away by gel filtration. The resulting dye:protein ratio is determined spectrophotometrically.
Immobilized G12V mutant K-Ras is then exposed to compound 117028, which has been previously shown to decrease intracellular levels of GTP-bound K-RAS as well as to decrease activation of the Raf/Mek/Erk signaling pathway (Grant et al., 2011, PLoS One, 6(10):e25711, the disclosure of which is incorporated by reference herein). 10 μM of the compound in assay buffer is added over the wells followed by gentle mixing. Assay buffer was 20 mM Tris pH 8.0, 150 mM NaCl, 0.5 mM DTT, 0.15% DMSO. […]

Experiment [6] addresses GTP-bound K-RAS (Homo sapiens, UniProt P01116). The following applies: previously shown, Grant et al., 2011; cited from earlier work.
The target of experiment [7] is T2, wt H-Ras (Homo sapiens, UniProt P01112).
T2 construct: fused on or other part: N-terminal 6x histidine tag, used to tether to Ni-NTA lipids; PyMPO-maleimide dye on native cysteine(s)
The experiment in a line: SHG detection of conformational change of labeled wt H-Ras tethered to a supported lipid bilayer. Format: binding. The following applies: cysteine-labeled H-Ras, serial dilutions, n=3; read-out: EC50 from SHG concentration response curve. The protocol:
Recombinant His-tagged (N-terminus) H-Ras protein was prepared according to standard protocols (6). The Ras protein prepared according to this protocol is bound to GDP. The protein was then labeled with PyMPO-maleimide, a cysteine-reactive dye in 0.1 M Tris pH 8.0, 20 mM NaCl, 0.5 mM TCEP, 5% glycerol and a 12:1 dye:protein ratio for one hour at room temperature. Unreacted dye was purified away by gel filtration. The resulting dye:protein ratio was 0.7:1 was determined spectrophotometrically. Cysteine-labeled Ras was then coupled directly to the membrane.
We labeled Ras using a standard protocol in pH 8.3 sodium bicarbonate buffer (Invitrogen, Inc.) and purified it by gel filtration and dialysis. Amine-labeled Ras was then coupled directly to the membrane.
Immediately before applying DOPC/DGS NTA (Ni) lipids, microscope slides were cleaned with Piranha wash for 20 minutes. […] Lateral mobility of the bilayers was confirmed by fluorescence recovery after photobleaching as known in the art. […]
PyMPO-SE was coupled to His-tagged wt K-Ras (Novus) using one of two protocols. […] The resulting dye:protein ratio was 0.7:1 as determined spectrophotometrically. […]
PyMPO-SE exposed to a blank bilayer (no protein) followed by washing led to no signal above background. Thus, the signal detected in the presence of protein after labeling is due to labeling of the protein itself while immobilized on the membrane. […]

Chain of GTP-bound K-RAS (P01116 1-188 isoform P01116-2): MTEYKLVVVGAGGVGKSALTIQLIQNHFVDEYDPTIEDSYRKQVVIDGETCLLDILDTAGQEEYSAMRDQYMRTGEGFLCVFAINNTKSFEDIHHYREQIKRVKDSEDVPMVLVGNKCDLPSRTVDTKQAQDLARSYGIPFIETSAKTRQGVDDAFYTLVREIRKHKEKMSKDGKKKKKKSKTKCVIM
T1 sequence (P01116 1-188 isoform P01116-2 G12V): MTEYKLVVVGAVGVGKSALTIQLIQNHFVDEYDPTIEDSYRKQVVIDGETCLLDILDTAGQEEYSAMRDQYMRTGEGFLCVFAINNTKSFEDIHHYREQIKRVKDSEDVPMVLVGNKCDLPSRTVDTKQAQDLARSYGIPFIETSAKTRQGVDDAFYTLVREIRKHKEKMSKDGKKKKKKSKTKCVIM
T2 sequence (P01112 whole entry, the tested form may be a part): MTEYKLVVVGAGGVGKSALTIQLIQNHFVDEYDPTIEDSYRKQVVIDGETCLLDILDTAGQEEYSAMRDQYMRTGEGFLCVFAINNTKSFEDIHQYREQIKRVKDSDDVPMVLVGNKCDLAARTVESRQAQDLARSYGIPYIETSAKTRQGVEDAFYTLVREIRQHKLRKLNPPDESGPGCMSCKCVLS

By IC50 is commonly meant the point on the concentration scale where inhibition reaches its midpoint. `O=C(CN1CCOCC1)NC1=Nc2ncccc2C(=O)NN1` [Compound 3]: the half-maximal inhibitory concentration (IC50) in experiment [1] stood at 950 nM. Besides, the “Biacore Result” value in experiment [2] is listed as “Binds”. The same compound came in with an EC50 in experiment [3] of 670 nM.
Regarding `Oc1c(CN2CCN(c3ccccc3)CC2)cc(Br)c2cccnc12` [Compound 1, 5-bromo-7-[(4-phenylpiperazin-1-yl)methyl]quinolin-8-ol], the “activation of the Raf/Mek/Erk signaling pathway” value in experiment [4] is recorded as “decrease”. Moreover, the “effect on the conformation of G12V K-Ras (SHG), protein labeled at Cys 118” value in experiment [5] was “significant effect”. The “intracellular levels of GTP-bound K-RAS” value in experiment [6] is given as “decrease”. In addition, the EC50 in experiment [7] turned out to be 4400 nM.

Source of the values: US9938560B2, “Methods for identifying modulators of Ras using nonlinear techniques” (Biodesy, Inc., priority 2012, dated 2018).
